Test results taken from patent US9113629B2, “4-amino-6-(4-substituted-phenyl)-picolinates and 6-amino-2-(4-substituted-phenyl)-pyrimidine-4-carboxylates and their use as herbicides” (DOW AGROSCIENCES LLC, priority 2013, dated 2015).
Like-named read-outs stand apart in the source and are kept apart here.

What was measured:
[1] = tested on: Key Grass and Sedge Weeds as well as Grass Crops; assay: Post-emergent Test II herbicidal activity (Table 6); type: in vivo; settings: post-emergence, 336 h; for pest or weed control at 70 g/ha: application rate 70 g ai/ha; for pest or weed control at 140 g/ha: application rate 140 g ai/ha
Summary of the method: (§1)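 Plants grown in Metro-Mix 360 (pH 6.0–6.8) in a greenhouse (~15 h photoperiod, 23–29 °C day) to first or second true leaf stage, then sprayed with compound in acetone/DMSO/aqueous crop-oil-surfactant carrier at 187 L/ha by track sprayer. Injury visually scored 0–100% versus untreated plants after 14 d.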

[2] = tested on: Key Broadleaf Weed and Crop Species; assay: Post-emergent Test II herbicidal activity (Table 5); type: in vivo; settings: post-emergence, 336 h, post-emergent, 14 days after application; for pest or weed control at 70 g/ha: 70 g ai/ha; for pest or weed control at 140 g/ha: 140 g ai/ha
Summary of the method: as §1

[3] = Triticum aestivum, TRZSS (wheat), read-out: Visual Growth Reduction (%) 14 Days After Application, TRZSS
[4] = CYPES: yellow nutsedge (Cyperus esculentus), read-out: Visual Growth Reduction (%) 14 Days After Application, CYPES
[5] = DIGSA: crabgrass (Digitaria sanguinalis), read-out: Visual Growth Reduction (%) 14 Days After Application, DIGSA
[6] = ECHCG: barnyardgrass (Echinochloa crus-galli), read-out: Visual Growth Reduction (%) 14 Days After Application, ECHCG
[7] = ORYSA: rice (Oryza sativa), read-out: Visual Growth Reduction (%) 14 Days After Application, ORYSA
[8] = SETFA: giant foxtail (Setaria faberi), read-out: Visual Growth Reduction (%) 14 Days After Application, SETFA
[9] = SORVU: grain sorghum (Sorghum vulgare), read-out: Visual Growth Reduction (%) 14 Days After Application, SORVU
[10] = ZEAMX: maize, corn (Zea mays), read-out: Visual Growth Reduction (%) 14 Days After Application, ZEAMX
[11] = ABUTH: velvetleaf (Abutilon theophrasti), read-out: Visual Growth Reduction (%) 14 Days After Application ABUTH
[12] = AMARE: redroot pigweed (Amaranthus retroflexus), read-out: Visual Growth Reduction (%) 14 Days After Application AMARE
[13] = BRSNN: oilseed-rape, canola (Brassica napus), read-out: Visual Growth Reduction (%) 14 Days After Application BRSNN
[14] = CHEAL: lambsquarters (Chenopodium album), read-out: Visual Growth Reduction (%) 14 Days After Application CHEAL
[15] = EPHHL: wild poinsettia (Euphorbia heterophylla), read-out: Visual Growth Reduction (%) 14 Days After Application EPHHL
[16] = HELAN: sunflower (Helianthus annuus), read-out: Visual Growth Reduction (%) 14 Days After Application HELAN
[17] = VIOTR: wild pansy (Viola tricolor), read-out: Visual Growth Reduction (%) 14 Days After Application VIOTR

`COC(=O)c1nc(-c2ccc(I)cc2F)cc(N)c1Cl` [Compound 159] showed a melting point of 139.8 to 141.2 °C, a pest or weed control at 70 g/ha [1, 3] of 60 to 74% and a pest or weed control at 140 g/ha [1, 3] of 60 to 74%. For the same molecule, the pest or weed control at 70 g/ha [1, 4] was 95 to 100%, the pest or weed control at 140 g/ha [1, 4] was 95 to 100% and the pest or weed control at 70 g/ha [1, 5] was 85 to 94%. It also gave a pest or weed control at 140 g/ha [1, 5] of 85 to 94%, a pest or weed control at 70 g/ha [1, 6] of 85 to 94% and a pest or weed control at 140 g/ha [1, 6] of 95 to 100%. The pest or weed control at 70 g/ha [1, 7] was 0 to 29%, the pest or weed control at 140 g/ha [1, 7] was 0 to 29% and the pest or weed control at 70 g/ha [1, 8] was 75 to 84%. For the same molecule, the pest or weed control at 140 g/ha [1, 8] was 95 to 100%, the pest or weed control at 70 g/ha [1, 9] was 95 to 100% and the pest or weed control at 140 g/ha [1, 9] was 95 to 100%. It also gave a pest or weed control at 70 g/ha [1, 10] of 60 to 74%, a pest or weed control at 140 g/ha [1, 10] of 75 to 84% and a pest or weed control at 70 g/ha [2, 11] of 95 to 100%. It also gave a pest or weed control at 140 g/ha [2, 11] of 95 to 100%, a pest or weed control at 70 g/ha [2, 12] of 95 to 100% and a pest or weed control at 140 g/ha [2, 12] of 95 to 100%. For the same molecule, the pest or weed control at 70 g/ha [2, 13] was 85 to 94%, the pest or weed control at 140 g/ha [2, 13] was 85 to 94% and the pest or weed control at 70 g/ha [2, 14] was 95 to 100%. The pest or weed control at 140 g/ha [2, 14] was 95 to 100%, the pest or weed control at 70 g/ha [2, 15] was 95 to 100% and the pest or weed control at 140 g/ha [2, 15] was 95 to 100%. It also gave a pest or weed control at 70 g/ha [2, 16] of 75 to 84%, a pest or weed control at 140 g/ha [2, 16] of 95 to 100% and a pest or weed control at 70 g/ha [2, 17] of 0 to 29%. The pest or weed control at 140 g/ha [2, 17] was 45 to 59%.
